Laboratory results reported in patent publication US6087401A, “Cyclopentenones, process for preparing the same, and the use thereof” (Takara Shuzo Co., Ltd., priority 1996, dated 2000).
≈ marks a conversion by molar mass, not a printed value. Like-named read-outs stand apart in the source and are kept apart here.

Assays:
HL-60 cells = assay: apoptosis-inducing activity to HL-60 cells; format: cell-based, human; settings: Homo sapiens
Protocol: (2) The cyclopentenone prepared in Example 2-(1) was used for preparing aqueous solutions of the cyclopentenone in the concentrations of 2.86 mM, 955 μM, 318 μM, 106 μM, 35 μM, 12 μM and […]. Then said heat-treated substance was adjusted to pH 7.0 with NaOH and the apoptosis-inducing activity to HL-60 cells was measured as follows.
To 1.35 ml of this suspension was added 0.15 ml of the above-mentioned cyclopentenone solution and the mixture was incubated at […] for 20 hours in the presence of 5% of carbon dioxide gas.

[1] = test system: Lactobacillus fructivorans (IFO 13118); assay: antibacterial activity to hiochi bacteria, microorganism A; format: cell-based; settings: five days; for Growth Turbidity (OD600): control 0.96
Protocol: (§1) The testing microorganism was subjected to a stationary incubation for five days in an SI medium (Japan Brewery Association) containing 10% of ethanol to give a seed microorganism. The seed microorganism (0.1%) was added to 100 ml of 10% ethanol-containing SI medium to which the cyclopentenone was added in an amount of 0, 25, 50, 75 or 100 μg/ml (in terms of final concentration), then a stationary incubation was conducted for five days and the turbidity was measured. In measuring the turbidity, the value of OD600 was measured using an absorbance meter. A value of OD600 of the medium to which no testing microorganism was inoculated was deducted from the above value and this (growth turbidity) was used for the growth of the tested microorganism.
(§2) The tested microorganisms were as follows. Thus, Lactobacillus fructivorans (IFO 13118) (testing microorganism A), Lactobacillus fructivorans (JCM 1198) (testing microorganism B) and Lactobacillus homohiochii (IFO 13120) (testing microorganism C) as true hiochi bacteria while Lactobacillus rhamnosus (IFO 3532) (testing microorganism D) was used as hiochi lactobacteria.

[2] = test system: Lactobacillus fructivorans (JCM 1198); assay: antibacterial activity to hiochi bacteria, microorganism B; format: cell-based; settings: five days; for Growth Turbidity (OD600): control 2.03
Protocol: as §1, §2

[3] = test system: Legionella pneumophila (isolated from a washing of human bronchus); format: cell-based; settings: 12 ppm, common logarithm

O=C1C=CC(O)C1O (stereo not drawn) [the cyclopentenone, 4,5-dihydroxy-2-cyclopenten-1-one]
minimal effective concentration (HL-60 cells; HL-60, 20 h, read-out: final concentration at which viable cell numbers and cell viability decreased): ≥ 10.6 µM
minimal effective concentration (HL-60 cells; HL-60, 20 hours, 35 μM solution added, read-out: final concentration at which apoptosis was induced (DNA molecular weight became small, cell shape changed)): 3.5 µM
Growth Turbidity (OD600) ([1]; 25 μg/ml): 0.17
Growth Turbidity (OD600) ([1]; 50 μg/ml): 0.02
Growth Turbidity (OD600) ([1]; 75 μg/ml): 0
MIC ([1]; Fructilactobacillus fructivorans, IFO13118, 120 h, read-out: concentration completely inhibiting growth): 75 µg/mL (≈ 657 µM)
Growth Turbidity (OD600) ([2]; 25 μg/ml): 0.01
Growth Turbidity (OD600) ([2]; 50 μg/ml): 0
Growth Turbidity (OD600) ([2]; 75 μg/ml): 0
MIC ([2]; Fructilactobacillus fructivorans, JCM1198, 120 h, read-out: concentration completely inhibiting growth): 50 µg/mL (≈ 438 µM)
Numbers of Tested Microorganism Cells after Incubation ([3]; 16 h, 0 ppm 6.9): 5.7 log10 CFU/ml
Numbers of Tested Microorganism Cells after Incubation ([3]; 96 h, 0 ppm 8.7): 8.3 log10 CFU/ml
